Test results from ChEMBL document CHEMBL4622906, “Design, synthesis and evaluation of novel levoglucosenone derivatives as promising anticancer agents” (Bioorg Med Chem Lett, 2020).
pIC50: −log10 of the molar value. The source made the active and inactive calls. The rule behind the calls is not given here.

What was measured:
[1] = test system: MDA-MB-231; test: Cytotoxicity against human MDA-MB-231 cells assessed as reduction in cell viability incubated for 48 hrs by MTT assay; assay type: functional, cell-based; details: MDA-MB-231, 48 h
[2] = test system: NCI-H1299; test: Cytotoxicity against human H1299 cells assessed as reduction in cell viability incubated for 48 hrs by MTT assay; assay type: functional, cell-based; details: NCI-H1299, 48 h
[3] = test system: HT-29; test: Cytotoxicity against human HT-29 cells assessed as reduction in cell viability incubated for 48 hrs by MTT assay; assay type: functional, cell-based; details: HT-29, 48 h
[4] = test system: MDA-MB-231; test: Cytotoxicity against human MDA-MB-231 cells with p53 knock down assessed as reduction in cell viability incubated for 48 hrs by MTT assay; assay type: functional, cell-based
[5] = test system: NCI-H1299; test: Cytotoxicity against human H1299 cells with p53 R280K mutant assessed as reduction in cell viability incubated for 48 hrs by MTT assay; assay type: functional, cell-based
[6] = Selectivity index, ratio of IC50 for African green monkey Vero cells to IC50 for human MDA-MB-231 cells; assay type: toxicity; details: Vero cells versus MDA-MB-231 cells, read-out: Ratio IC50
[7] = Selectivity index, ratio of IC50 for African green monkey Vero cells to IC50 for human H1299 cells; assay type: toxicity; details: Vero cells versus H1299 cells, read-out: Ratio IC50
[8] = Selectivity index, ratio of IC50 for African green monkey Vero cells to IC50 for human HT-29 cells; assay type: toxicity; details: Vero cells versus HT-29 cells, read-out: Ratio IC50

Structure (SMILES) | pIC50 [1] | pIC50 [2] | pIC50 [3] | inhibition [4] | cytotoxicity activity call (active/inactive) [5] | other results
CC(=O)N(Cc1cn(CC(=O)c2ccccc2)nn1)[C@H]1CC(=O)[C@@H]2OC[C@H]1O2 | < 4.30 |  |  |  |  | 
O=C1C[C@H](OCc2cc(-c3ccc(Cl)cc3)no2)[C@H]2CO[C@@H]1O2 | 4.75 | 5.05 | 4.84 | inactive | Active | 
O=C1C[C@H](OCc2cn(-c3ccccc3Br)nn2)[C@H]2CO[C@@H]1O2 | 4.65 |  |  |  |  | 
O=C1C[C@H](OCc2cc(C3CCCCC3)no2)[C@H]2CO[C@@H]1O2 | 4.80 | 5.21 | 5.05 | inactive | Active | 
COC(=O)Cn1cc(CN(C(C)=O)[C@H]2CC(=O)[C@@H]3OC[C@H]2O3)nn1 | < 4.30 |  |  |  |  | 
O=C1C[C@H](OCc2cn(Cc3ccccc3)nn2)[C@H]2CO[C@@H]1O2 | < 4.30 |  |  |  |  | 
O=C1C[C@H](OCc2cc(-c3ccccc3)no2)[C@H]2CO[C@@H]1O2 | 4.66 | 5.01 | 4.77 | inactive | Active | 
O=C1CCCCC1n1cc(CO[C@H]2CC(=O)[C@@H]3OC[C@H]2O3)nn1 (some centres undefined) | 4.44 |  |  |  |  | 
CCCCCCCCn1cc(CO[C@H]2CC(=O)[C@@H]3OC[C@H]2O3)nn1 | < 4.30 |  |  |  |  | 
O=C1C[C@H](OCc2cn(-c3cccc(Cl)c3Cl)nn2)[C@H]2CO[C@@H]1O2 | 4.59 |  |  |  |  | 
O=C1C[C@H](OCc2cn(Cc3ccc4ccccc4c3)nn2)[C@H]2CO[C@@H]1O2 | 4.63 |  |  |  |  | 
O=C(O)c1ccc(-n2cc(CO[C@H]3CC(=O)[C@@H]4OC[C@H]3O4)nn2)cc1 | 4.63 |  |  |  |  | 
O=C1C[C@H](OCc2cn(C3CCCCC3)nn2)[C@H]2CO[C@@H]1O2 | 4.61 | 4.92 | 4.92 | inactive | Active | selectivity ratio [6]: > 2; selectivity ratio [7]: 5; selectivity ratio [8]: 6
COc1ccc(Cn2cc(CO[C@H]3CC(=O)[C@@H]4OC[C@H]3O4)nn2)cc1 | 4.46 |  |  |  |  | 
CCCCCCCCn1cc(CN(C(C)=O)[C@H]2CC(=O)[C@@H]3OC[C@H]2O3)nn1 | < 4.30 |  |  |  |  | 
O=C1C[C@H](OCc2cn(-c3ccccc3)nn2)[C@H]2CO[C@@H]1O2 | 4.60 | 4.96 | 4.87 | inactive | Active | 
O=C(Cn1cc(CO[C@H]2CC(=O)[C@@H]3OC[C@H]2O3)nn1)c1ccccc1 | 4.59 |  |  |  |  | 
O=C1C[C@H](OCc2cc(-c3ccc([N+](=O)[O-])cc3)no2)[C@H]2CO[C@@H]1O2 | 4.78 | 4.95 | 4.70 | inactive | Active | 

Structure (SMILES) | pIC50 [1] | pIC50 [2] | pIC50 [3] | inhibition [4] | cytotoxicity activity call (active/inactive) [5] | other results
O=C1C[C@H](OCc2cc(-c3cc(C(F)(F)F)cc(C(F)(F)F)c3)no2)[C@H]2CO[C@@H]1O2 | 4.62 |  |  |  |  | 
O=C1C[C@H](OCc2cn(-c3ccccc3Cl)nn2)[C@H]2CO[C@@H]1O2 | 4.58 |  |  |  |  | 
COC(=O)Cn1cc(CO[C@H]2CC(=O)[C@@H]3OC[C@H]2O3)nn1 | 4.67 |  |  |  |  | 
COc1ccc(-c2cc(CO[C@H]3CC(=O)[C@@H]4OC[C@H]3O4)on2)cc1 | 4.66 |  |  |  |  | 
COc1ccc(/C=C/c2cc(CO[C@H]3CC(=O)[C@@H]4OC[C@H]3O4)on2)cc1 | 4.58 |  |  |  |  | 
O=C1C[C@H](OCc2cn(-c3ccc(F)cc3)nn2)[C@H]2CO[C@@H]1O2 | 4.63 |  |  |  |  | 
O=C1C[C@H](OCc2cn(-c3cccc4ccccc34)nn2)[C@H]2CO[C@@H]1O2 | 4.66 |  |  |  |  | 
C=C(C)Cn1cc(CO[C@H]2CC(=O)[C@@H]3OC[C@H]2O3)nn1 | 4.57 | 4.84 | 4.76 | inactive | Active | 
O=C1C[C@H](OCc2cn(-c3ccc([N+](=O)[O-])cc3)nn2)[C@H]2CO[C@@H]1O2 | 4.61 | 4.99 | 4.74 | inactive | Active | 
O=C1C[C@H](OCc2cc(-c3ccc(Cl)o3)no2)[C@H]2CO[C@@H]1O2 | 4.86 | 5.12 | 5.00 | inactive | Active | 
O=C1C[C@H](OCc2cn(C(=O)OCC3c4ccccc4-c4ccccc43)nn2)[C@H]2CO[C@@H]1O2 | 4.73 | 5.05 | 4.81 | inactive | Active | selectivity ratio [6]: > 2; selectivity ratio [7]: 5; selectivity ratio [8]: 6
CC(=O)N(Cc1cn(Cc2ccccc2)nn1)[C@H]1CC(=O)[C@@H]2OC[C@H]1O2 | < 4.30 |  |  |  |  | 
O=C1C[C@H](OCc2cn(Cc3ccc([N+](=O)[O-])cc3)nn2)[C@H]2CO[C@@H]1O2 | 4.60 |  |  |  |  | 
CCCCn1cc(CO[C@H]2CC(=O)[C@@H]3OC[C@H]2O3)nn1 | 4.55 |  |  |  |  | 
O=C1C[C@H](OCc2cc(/C=C/c3ccccc3)no2)[C@H]2CO[C@@H]1O2 | 4.64 | 5.15 | 4.86 | inactive | Active | 
O=C1C[C@H](OCc2cn(-c3ccc(Cl)cc3)nn2)[C@H]2CO[C@@H]1O2 | 4.58 | 4.97 | 4.83 | inactive | Active | 
O=C1C[C@H](OCc2cc(-c3ccc4ccccc4c3)no2)[C@H]2CO[C@@H]1O2 | 4.67 |  |  |  |  | 
